Assay results: patent US7964624B1, “Inhibitors of serine proteases” (priority 2005, dated 2011)

What was measured:
[1] = target: T1, full-length hepatitis C viral protein NS3•4A (Hepatitis C virus genotype 1a, UniProt P27958); experiment: biochemical; design: species or system HCV sub-type strain 1a
T1 construct: hexa-histidine (N); made in house; host or cells: Sf9 insect cells (baculovirus, pVL1392)

[2] = target: T2, HCV NS3 protease domain (Hepatitis C virus genotype 1b, UniProt Q9WMX2); experiment: biochemical; settings: Enzyme Assay 1 (HCV NS3 Protease Domain Peptide Cleavage Assay) activity, apparent Ki class
T2 construct: The first 181 amino acids of NS3 (residues 1027-1207 of the viral polyprotein); hexa-histidine (C); made in house; host or cells: E. coli BL21/DE3 pLysS

[3] = Enzyme Assay 2 (HCV NS3 Peptide Cleavage Assay) activity, apparent Ki class
[4] = Enzyme Assay 2, HCV NS3 Peptide Cleavage Assay, apparent Ki

CCC[C@H](NC(=O)[C@@H]1C[C@]2(CC(c3ccc(C)c(Cl)c3)=NO2)CN1C(=O)[C@@H](NC(=O)CC1CCCCC1)C(C)(C)C)C(=O)C(=O)NC1CC1 [Compound 3]
Ki [1, 3]: < 100 nM
Ki [2]: 100 to 500 nM

CC1(O)CCC(CC(=O)N[C@H](C(=O)N2C[C@@]3(CC(c4cccc(Cl)c4)=NO3)C[C@H]2C(=O)N[C@@H](CC2CC2)C(=O)C(N)=O)C(C)(C)C)CC1 (stereo partly shown) [Compound 5]
Ki [1, 3]: < 100 nM
Ki [2]: < 100 nM

CCC[C@H](NC(=O)[C@@H]1C[C@]2(CC(c3cccc(Cl)c3)=NO2)CN1C(=O)[C@@H](NC(=O)CC1CCCCC1)C(C)(C)C)C(=O)C(=O)NC1Cc2ccccc2C1 [Compound 6]
Ki [1, 3]: > 500 nM
Ki [2]: > 500 nM

CCC[C@H](NC(=O)[C@@H]1C[C@]2(CC(c3cccc(Cl)c3)=NO2)CN1C(=O)[C@@H](CC(=O)NCc1ccccc1)C(C)C)C(=O)C(=O)NC1CC1 [Compound 10]
Ki [1, 3]: > 500 nM
Ki [2]: > 500 nM

CCC[C@H](NC(=O)[C@@H]1C[C@]2(CC(c3cccc(Cl)c3)=NO2)CN1C(=O)[C@@H](NC(C)=O)C(C)(C)C)C(=O)C(=O)NC1CC1 [Compound 12]
Ki [1, 3]: < 100 nM
Ki [2]: 100 to 500 nM

CC(C)(C)[C@H](NC(=O)CC1CC2CCC1C2)C(=O)N1C[C@@]2(CC(c3cccc(Cl)c3)=NO2)C[C@H]1C(=O)N[C@@H](CC1CC1)C(=O)C(N)=O (stereo partly shown) [Compound 13]
Ki [1, 3]: < 100 nM
Ki [2]: < 100 nM

CCC[C@H](NC(=O)[C@@H]1C[C@]2(CC(c3cccc(Cl)c3)=NO2)CN1C(=O)[C@@H](NC(=O)CC1CCCCC1)C(C)(C)C)C(=O)C(=O)NCc1nc2ccccc2s1 [Compound 17]
Ki [1, 3]: 100 to 500 nM
Ki [2]: > 500 nM

CC(C)(C)[C@H](NC(=O)CC1CCCCC1)C(=O)N1C[C@@]2(CC(c3cc(Cl)c4c(c3)CCO4)=NO2)C[C@H]1C(=O)NC(CC1CCC1)C(=O)C(=O)NC1CC1 (stereo partly shown) [Compound 18]
Ki [1, 3]: < 100 nM
Ki [2]: < 100 nM

CCC[C@H](NC(=O)[C@@H]1C[C@]2(CC(c3cccc(Cl)c3)=NO2)CN1C(=O)[C@@H](NC(=O)CC12CCCCC1C2)C(C)(C)C)C(=O)C(=O)NC1CC1 (stereo partly shown) [Compound 19]
Ki [1, 3]: < 100 nM
Ki [2]: 100 to 500 nM

CCC[C@H](NC(=O)[C@@H]1C[C@]2(CC(c3cccc(Cl)c3)=NO2)CN1C(=O)[C@@H](CC(=O)NC1CCCCC1)C(C)C)C(=O)C(=O)NC1CC1 [Compound 21]
Ki [1, 3]: > 500 nM
Ki [2]: > 500 nM

CC(C)(C)[C@H](NC(=O)CC1CCCCC1)C(=O)N1C[C@@]2(CC(c3cccc(Cl)c3)=NO2)C[C@H]1C(=O)N[C@@H](CC1CCC1)C(=O)C(=O)NC1CC1 [Compound 23]
Ki [1, 3]: 100 to 500 nM
Ki [2]: < 100 nM

CCC[C@H](NC(=O)[C@@H]1C[C@]2(CC(c3cccc(Cl)c3)=NO2)CN1C(=O)[C@@H](NC(=O)[C@@H]1CCCN1C(=O)c1ccccc1)C(C)(C)C)C(=O)C(=O)NC1CC1 [Compound 26]
Ki [1, 3]: < 100 nM
Ki [2]: 100 to 500 nM

CCC[C@H](NC(=O)[C@@H]1C[C@]2(CC(c3ccccc3C#N)=NO2)CN1C(=O)[C@@H](NC(=O)CC1CCCCC1)C(C)(C)C)C(=O)C(=O)NC1CC1 [Compound 28]
Ki [1, 3]: 100 to 500 nM
Ki [2]: > 500 nM

CCC[C@H](NC(=O)[C@@H]1C[C@]2(CC(c3cccc(Cl)c3)=NO2)CN1C(=O)[C@@H](NC(=O)CC1(C)CCCCC1)C(C)(C)C)C(=O)C(=O)NC1CC1 [Compound 29]
Ki [1, 3]: 100 to 500 nM
Ki [2]: 100 to 500 nM

CCC[C@H](NC(=O)[C@@H]1C[C@]2(CC(c3cccc(Cl)c3)=NO2)CN1C(=O)[C@@H](NC(=O)[C@@H]1CCC(=O)N1Cc1cccs1)C(C)(C)C)C(=O)C(=O)NC1CC1 [Compound 30]
Ki [1, 3]: < 100 nM
Ki [2]: 100 to 500 nM

CCC[C@H](NC(=O)[C@@H]1C[C@]2(CC(c3cccc4cccnc34)=NO2)CN1C(=O)[C@@H](NC(=O)CC1CCCCC1)C(C)(C)C)C(=O)C(=O)NC1CC1 [Compound 42]
Ki [1, 3]: < 100 nM
Ki [2]: 100 to 500 nM

C=C[C@@H]1C[C@]1(NC(=O)[C@@H]1C[C@]2(CC(c3cccc(Cl)c3)=NO2)CN1C(=O)[C@@H](NC(=O)OC1CCOC1)C(C)(C)C)C(=O)NS(=O)(=O)C1CC1 (stereo partly shown) [Compound 45]
Ki [1, 3]: 100 to 500 nM
Ki [2]: > 500 nM

CCC[C@H](NC(=O)[C@@H]1C[C@]2(CC(c3cccc(Cl)c3)=NO2)CN1C(=O)c1cc2cc(Br)ccc2[nH]1)C(=O)C(=O)NC1CC1 [Compound 46]
Ki [1, 3]: > 500 nM
Ki [2]: > 500 nM

CCC[C@H](NC(=O)[C@@H]1CC2(CC(c3cccc(Cl)c3)=NO2)CN1C(=O)[C@H](CCSCC)NC(C)=O)C(=O)C(=O)NC1CC1 (stereo partly shown) [Compound 54]
Ki [1, 3]: 100 to 500 nM
Ki [2]: > 500 nM

CNC(=O)C(=O)[C@H](CC1CC1)NC(=O)[C@@H]1C[C@]2(CC(c3cccc(Cl)c3)=NO2)CN1C(=O)[C@@H](NC(=O)C1(c2ccccc2)CC1)C(C)(C)C [Compound 966]
Ki [1, 4]: > 500 nM

[2H][C@@](CCC)(NC(=O)[C@@H]1C[C@]2(CC(c3cc(C)c(OC)c(C)c3)=NO2)CN1C(=O)[C@@H](NC(=O)CC1CCCCC1)C(C)(C)C)C(=O)C(=O)NC1CC1 [Compound 967]
Ki [1, 4]: < 100 nM

CCC[C@H](NC(=O)[C@@H]1C[C@]2(CC(c3cc(Cl)ccc3OC)=NO2)CN1C(=O)[C@@H](NC(=O)[C@@H]1C[C@H]1c1ccccc1)C(C)(C)C)C(=O)C(=O)NC1CC1 [Compound 968]
Ki [1, 4]: < 100 nM

CCC[C@H](NC(=O)[C@@H]1C[C@]2(CC(c3cc(Cl)ccc3OC)=NO2)CN1C(=O)[C@@H](NC(=O)[C@@H]1C[C@H]1c1ccccc1)C(C)(C)C)C(=O)C(=O)NC [Compound 969]
Ki [1, 4]: < 100 nM

CCNC(=O)C(=O)[C@H](CC1CC1)NC(=O)[C@@H]1C[C@]2(CC(c3cc(Cl)ccc3OC)=NO2)CN1C(=O)[C@@H](NC(=O)[C@@H]1C[C@H]1c1ccccc1)C(C)(C)C [Compound 970]
Ki [1, 4]: < 100 nM

CCOc1cc(OC)c(C2=NO[C@]3(C2)C[C@@H](C(=O)N[C@@H](CC2CC2)C(=O)C(N)=O)N(C(=O)[C@@H](NC(=O)OC(C)(C)C)C(C)(C)C)C3)cc1Cl [Compound 971]
Ki [1, 4]: < 100 nM

CCOc1cc(OC)c(C2=NO[C@]3(C2)C[C@@H](C(=O)N[C@@H](CC2CC2)C(=O)C(N)=O)N(C(=O)[C@@H](NC(=O)CC2CCCCC2)C(C)(C)C)C3)cc1Cl [Compound 972]
Ki [1, 4]: < 100 nM

CCOc1c(C)cc(C2=NO[C@]3(C2)C[C@@H](C(=O)N[C@@H](CC2CC2)C(=O)C(N)=O)N(C(=O)[C@@H](NC(=O)OC(C)(C)C)C(C)(C)C)C3)cc1C [Compound 974]
Ki [1, 4]: < 100 nM

CCOc1c(C)cc(C2=NO[C@]3(C2)C[C@@H](C(=O)N[C@@H](CC2CC2)C(=O)C(N)=O)N(C(=O)[C@@H](NC(=O)CC2CCCCC2)C(C)(C)C)C3)cc1C [Compound 975]
Ki [1, 4]: < 100 nM

CCC[C@H](NC(=O)[C@@H]1C[C@]2(CC(c3cc(C)c(OCC)c(C)c3)=NO2)CN1C(=O)[C@@H](NC(=O)[C@H]1C[C@@H]1c1ccccn1)C(C)(C)C)C(=O)C(=O)NC1CC1 [Compound 980]
Ki [1, 4]: 100 to 500 nM

CCC[C@H](NC(=O)[C@@H]1C[C@]2(CC(c3cc(C)c(OCC)c(C)c3)=NO2)CN1C(=O)[C@@H](NC(=O)[C@@H]1C[C@H]1c1ccccn1)C(C)(C)C)C(=O)C(=O)NC1CC1 [Compound 981]
Ki [1, 4]: < 100 nM

CCC[C@H](NC(=O)[C@@H]1C[C@]2(CC(c3cc(C)c(OCC)c(C)c3)=NO2)CN1C(=O)[C@@H](NC(=O)C1CC1c1ccncc1)C(C)(C)C)C(=O)C(=O)NC1CC1 (stereo partly shown) [Compound 982]
Ki [1, 4]: 100 to 500 nM

CCC[C@H](NC(=O)[C@@H]1C[C@]2(CC(c3cc(C)c(OCC)c(C)c3)=NO2)CN1C(=O)[C@@H](NC(=O)[C@@H]1C[C@H]1C(C)C)C(C)(C)C)C(=O)C(=O)NC1CC1 [Compound 983]
Ki [1, 4]: < 100 nM

CCC[C@H](NC(=O)[C@@H]1C[C@]2(CC(c3cc(C)c(OCC)c(C)c3)=NO2)CN1C(=O)[C@@H](NC(=O)[C@@H]1C[C@H]1C1CCCCC1)C(C)(C)C)C(=O)C(=O)NC1CC1 [Compound 984]
Ki [1, 4]: < 100 nM

CCOc1c(C)cc(C2=NO[C@]3(C2)C[C@@H](C(=O)N[C@@H](CC2CC2)C(=O)C(=O)NC)N(C(=O)[C@@H](NC(=O)[C@@H]2C[C@H]2c2ccccc2OC)C(C)(C)C)C3)cc1C [Compound 985]
Ki [1, 4]: < 100 nM

CCOc1c(C)cc(C2=NO[C@]3(C2)C[C@@H](C(=O)N[C@@H](CC2CC2)C(=O)C(=O)NC)N(C(=O)[C@@H](NC(=O)[C@H]2C[C@@H]2c2ccccn2)C(C)(C)C)C3)cc1C [Compound 986]
Ki [1, 4]: 100 to 500 nM

CCC[C@H](NC(=O)[C@@H]1C[C@]2(CC(c3cc(C)c(OCC)c(C)c3)=NO2)CN1C(=O)[C@@H](NC(=O)[C@@H]1C[C@H]1c1ccccc1OC)C(C)(C)C)C(=O)C(=O)NC [Compound 991]
Ki [1, 4]: < 100 nM

CCC[C@H](NC(=O)[C@@H]1C[C@]2(CC(c3cc(C)c(OCC)c(C)c3)=NO2)CN1C(=O)[C@@H](NC(=O)C1C[C@H]1C(C)C)C(C)(C)C)C(=O)C(=O)NC (stereo partly shown) [Compound 992]
Ki [1, 4]: < 100 nM

CCC[C@H](NC(=O)[C@@H]1C[C@]2(CC(c3cc(C)c(OCC)c(C)c3)=NO2)CN1C(=O)[C@@H](NC(=O)[C@@H]1C[C@H]1C1CCCCC1)C(C)(C)C)C(=O)C(=O)NC [Compound 993]
Ki [1, 4]: < 100 nM

CCC[C@H](NC(=O)[C@@H]1C[C@]2(CC(c3cc(C)c(OCC)c(C)c3)=NO2)CN1C(=O)[C@@H](NC(=O)[C@@H]1C[C@H]1c1ccc(F)cc1)C(C)(C)C)C(=O)C(=O)NC1CC1 [Compound 994]
Ki [1, 4]: < 100 nM

CCC[C@H](NC(=O)[C@@H]1C[C@]2(CC(c3cc(C)c(OCC)c(C)c3)=NO2)CN1C(=O)[C@@H](NC(=O)[C@@H]1C[C@H]1c1ccc(F)cc1)C(C)(C)C)C(=O)C(=O)NC [Compound 995]
Ki [1, 4]: < 100 nM

CCC[C@H](NC(=O)[C@@H]1C[C@]2(CC(c3cc(C)c(OCC)c(C)c3)=NO2)CN1C(=O)[C@@H](NC(=O)[C@H]1C[C@@H]1c1ccc(F)cc1)C(C)(C)C)C(=O)C(=O)NC1CC1 [Compound 996]
Ki [1, 4]: < 100 nM

CCC[C@H](NC(=O)[C@@H]1C[C@]2(CC(c3cc(C)c(OCC)c(C)c3)=NO2)CN1C(=O)[C@@H](NC(=O)[C@H]1C[C@@H]1c1ccc(F)cc1)C(C)(C)C)C(=O)C(=O)NC [Compound 997]
Ki [1, 4]: < 100 nM
